Source: the Kinase Knowledgebase extract (Sharma et al. 2016)
Each block holds one molecule with its values, some of them ahead of it.

How the values were obtained:
[1] = tested on: EGFR (Human), P00533 [T790M/L858R]; conditions: nci-h1975
[2] = tested on: EGFR (Human), P00533 [Assessment of Proliferation in EGFR DelE746_A750 Mutant Expressing HCC827 Cells]
EGFR (Human), P00533 [Assessment of Proliferation in EGFR DelE746_A750 Mutant Expressing HCC827 Cells], sequence (P00533 whole entry, looked up, stated change not applied): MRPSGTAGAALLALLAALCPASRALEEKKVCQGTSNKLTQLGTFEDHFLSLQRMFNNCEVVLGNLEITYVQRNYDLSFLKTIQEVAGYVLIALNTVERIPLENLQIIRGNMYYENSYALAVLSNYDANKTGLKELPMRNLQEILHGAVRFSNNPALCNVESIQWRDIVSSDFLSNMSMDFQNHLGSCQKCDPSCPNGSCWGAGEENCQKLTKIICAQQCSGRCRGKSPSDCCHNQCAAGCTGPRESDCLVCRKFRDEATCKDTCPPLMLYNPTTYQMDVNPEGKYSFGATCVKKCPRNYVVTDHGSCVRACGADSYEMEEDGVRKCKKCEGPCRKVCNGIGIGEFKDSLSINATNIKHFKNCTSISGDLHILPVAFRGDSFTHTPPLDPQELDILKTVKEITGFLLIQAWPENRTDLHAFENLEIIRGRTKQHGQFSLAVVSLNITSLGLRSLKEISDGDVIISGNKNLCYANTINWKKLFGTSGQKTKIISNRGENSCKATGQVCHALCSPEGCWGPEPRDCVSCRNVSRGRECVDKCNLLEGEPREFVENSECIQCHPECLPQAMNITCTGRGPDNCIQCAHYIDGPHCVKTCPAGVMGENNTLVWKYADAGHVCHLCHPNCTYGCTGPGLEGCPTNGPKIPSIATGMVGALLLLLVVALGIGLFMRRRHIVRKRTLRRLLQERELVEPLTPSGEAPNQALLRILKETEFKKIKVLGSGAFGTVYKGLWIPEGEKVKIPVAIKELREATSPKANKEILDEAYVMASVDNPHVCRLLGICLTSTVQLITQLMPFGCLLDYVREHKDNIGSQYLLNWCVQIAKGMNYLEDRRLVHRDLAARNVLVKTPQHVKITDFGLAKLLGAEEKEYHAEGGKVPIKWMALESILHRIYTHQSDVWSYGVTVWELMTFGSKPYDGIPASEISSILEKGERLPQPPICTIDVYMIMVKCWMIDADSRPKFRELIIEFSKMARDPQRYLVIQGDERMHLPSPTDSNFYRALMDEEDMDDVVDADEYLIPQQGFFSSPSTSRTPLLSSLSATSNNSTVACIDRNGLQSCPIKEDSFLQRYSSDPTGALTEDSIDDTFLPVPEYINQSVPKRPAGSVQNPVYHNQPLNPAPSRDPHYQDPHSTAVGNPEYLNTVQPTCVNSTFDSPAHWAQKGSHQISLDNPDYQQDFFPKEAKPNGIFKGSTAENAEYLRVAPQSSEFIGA

EGFR (Human), P00533 [T790M/L858R], sequence (P00533 whole entry T790M/L858R, looked up): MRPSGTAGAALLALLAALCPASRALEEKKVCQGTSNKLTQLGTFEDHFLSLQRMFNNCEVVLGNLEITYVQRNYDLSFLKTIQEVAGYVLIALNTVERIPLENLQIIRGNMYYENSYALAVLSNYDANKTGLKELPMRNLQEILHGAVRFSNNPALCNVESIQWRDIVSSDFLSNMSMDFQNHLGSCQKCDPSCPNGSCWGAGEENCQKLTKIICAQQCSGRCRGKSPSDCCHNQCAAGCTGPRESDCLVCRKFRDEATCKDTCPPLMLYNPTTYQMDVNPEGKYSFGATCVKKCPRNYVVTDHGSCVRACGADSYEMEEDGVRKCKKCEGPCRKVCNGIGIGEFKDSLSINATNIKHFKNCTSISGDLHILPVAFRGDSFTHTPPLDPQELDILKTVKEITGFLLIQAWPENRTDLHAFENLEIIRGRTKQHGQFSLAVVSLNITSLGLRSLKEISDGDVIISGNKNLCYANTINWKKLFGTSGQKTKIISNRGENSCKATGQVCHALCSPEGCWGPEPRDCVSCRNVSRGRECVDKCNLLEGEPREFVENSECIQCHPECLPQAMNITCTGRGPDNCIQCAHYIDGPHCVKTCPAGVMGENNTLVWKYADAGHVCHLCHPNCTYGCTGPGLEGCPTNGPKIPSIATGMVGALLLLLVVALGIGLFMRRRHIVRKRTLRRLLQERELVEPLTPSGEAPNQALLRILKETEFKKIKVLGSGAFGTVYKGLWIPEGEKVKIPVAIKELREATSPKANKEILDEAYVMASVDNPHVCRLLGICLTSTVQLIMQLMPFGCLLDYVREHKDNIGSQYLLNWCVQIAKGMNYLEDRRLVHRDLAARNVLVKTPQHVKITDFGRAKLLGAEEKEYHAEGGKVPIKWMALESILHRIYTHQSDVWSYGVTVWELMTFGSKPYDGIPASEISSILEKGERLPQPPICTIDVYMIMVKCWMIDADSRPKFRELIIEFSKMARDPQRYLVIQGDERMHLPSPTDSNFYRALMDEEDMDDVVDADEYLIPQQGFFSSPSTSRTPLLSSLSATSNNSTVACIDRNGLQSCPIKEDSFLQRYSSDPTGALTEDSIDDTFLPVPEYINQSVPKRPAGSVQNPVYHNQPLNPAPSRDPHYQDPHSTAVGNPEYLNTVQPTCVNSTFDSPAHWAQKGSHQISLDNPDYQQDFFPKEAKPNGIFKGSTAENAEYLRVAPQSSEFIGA

Compound: C=CC(=O)Nc1cccc(Oc2nc(Nc3ccc(S(=O)(=O)NCCN(C)C)cc3)nc3ccsc23)c1
- GI50 [1]: ≤ 50 nM
- GI50 [2]: ≤ 50 nM

Compound: C=CC(=O)Nc1cccc(Oc2nc(Nc3ccc(NC(=O)N4CCN(C)CC4)c(F)c3)nc3ccsc23)c1
- GI50 [1]: 50 to 100 nM
- GI50 [2]: ≤ 50 nM

Compound: C=CC(=O)Nc1cccc(Oc2nc(Nc3ccc(N4CCC(N5CCCC5)CC4)c(Cl)c3)nc3ccsc23)c1
- GI50 [1]: ≤ 50 nM
- GI50 [2]: ≤ 50 nM

Compound: C=CC(=O)Nc1cccc(Oc2nc(Nc3ccc(C4CCN(C)CC4)c(F)c3)nc3ccoc23)c1
- GI50 [1]: ≤ 50 nM
- GI50 [2]: ≤ 50 nM

Compound: C=CC(=O)Nc1cccc(Oc2nc(Nc3ccc(N4CCN(C5CCN(C)CC5)CC4)nc3)nc3ccsc23)c1
- GI50 [1]: ≤ 50 nM
- GI50 [2]: ≤ 50 nM

Compound: C=CC(=O)Nc1cccc(Oc2nc(Nc3ccc(OCCOC)cc3)nc3ccsc23)c1
- GI50 [1]: ≤ 50 nM
- GI50 [2]: 50 to 100 nM

Compound: C=CC(=O)Nc1cccc(Oc2nc(Nc3ccc(N4CCNCC4)c(Cl)c3)nc3ccsc23)c1
- GI50 [1]: ≤ 50 nM
- GI50 [2]: ≤ 50 nM

Compound: C=CC(=O)Nc1cccc(Oc2nc(Nc3ccc(C4CCCN(C)C4)c(F)c3)nc3ccsc23)c1 (configuration not stated)
- GI50 [1]: ≤ 50 nM
- GI50 [2]: ≤ 50 nM

Compound: C=CC(=O)Nc1cccc(Oc2nc(Nc3ccc(OCCOC)c(F)c3)nc3ccsc23)c1
- GI50 [1]: ≤ 50 nM
- GI50 [2]: 50 to 100 nM

Compound: C=CC(=O)Nc1cccc(Oc2nc(Nc3ccc(N4CCOCC4)c(F)c3)nc3ccsc23)c1
- GI50 [1]: ≤ 50 nM
- GI50 [2]: ≤ 50 nM

Compound: C=CC(=O)Nc1cccc(Oc2nc(Nc3ccc(CN4CCC(N5CCOCC5)CC4)cc3)nc3ccsc23)c1
- GI50 [1]: ≤ 50 nM
- GI50 [2]: ≤ 50 nM

Compound: C=CC(=O)Nc1cccc(Oc2nc(Nc3ccc(C(=O)N(C)C)c(Cl)c3)nc3ccsc23)c1
- GI50 [1]: ≤ 50 nM
- GI50 [2]: 50 to 100 nM

Compound: C=CC(=O)Nc1cccc(Oc2nc(Nc3ccc(CP(=O)(OC)OC)cc3)nc3ccsc23)c1
- GI50 [1]: ≤ 50 nM
- GI50 [2]: ≤ 50 nM

Compound: C=CC(=O)Nc1cccc(Oc2nc(Nc3ccc(NC4CCN(C(C)C)CC4)nc3)nc3ccsc23)c1
- GI50 [1]: 50 to 100 nM
- GI50 [2]: 50 to 100 nM

Compound: C=CC(=O)Nc1cccc(Oc2nc(Nc3ccc(OCCN4CCOCC4)c(F)c3)nc3ccsc23)c1
- GI50 [1]: ≤ 50 nM
- GI50 [2]: 50 to 100 nM

Compound: C=CC(=O)Nc1cccc(Oc2nc(Nc3ccc4c(c3)CCCC(=O)N4C)nc3ccsc23)c1
- GI50 [1]: 50 to 100 nM
- GI50 [2]: 50 to 100 nM

Compound: C=CC(=O)Nc1cccc(Oc2nc(Nc3ccc(-n4ccnc4)cc3)nc3ccsc23)c1
- GI50 [1]: ≤ 50 nM
- GI50 [2]: 50 to 100 nM

Compound: C=CC(=O)Nc1cccc(Oc2nc(Nc3ccc(C(=O)NC)cc3)nc3ccsc23)c1
- GI50 [1]: 50 to 100 nM
- GI50 [2]: 50 to 100 nM

Compound: C=CC(=O)Nc1cccc(Oc2nc(Nc3ccc(CS(C)(=O)=O)cc3)nc3ccsc23)c1
- GI50 [1]: ≤ 50 nM
- GI50 [2]: ≤ 50 nM

Compound: C=CC(=O)Nc1cccc(Oc2nc(Nc3ccc(C=CCN4CCCCC4)cc3)nc3ccsc23)c1
- GI50 [1]: 50 to 100 nM
- GI50 [2]: ≤ 50 nM

Compound: C=CC(=O)Nc1cccc(Oc2nc(Nc3ccc(C4CCCN(C)C4)cc3OC)nc3ccsc23)c1 (configuration not stated)
- GI50 [1]: ≤ 50 nM
- GI50 [2]: ≤ 50 nM

Compound: C=CC(=O)Nc1cccc(Nc2nc(Nc3ccc(CN4CCCCC4)cc3OC)nc3ccsc23)c1
- GI50 [1]: 50 to 100 nM
- GI50 [2]: 50 to 100 nM

Compound: C=CC(=O)Nc1cccc(Oc2nc(Nc3ccc(C(=O)N4CCN(S(=O)(=O)CC)CC4)c(Cl)c3)nc3ccsc23)c1
- GI50 [1]: 50 to 100 nM
- GI50 [2]: ≤ 50 nM

Compound: C=CC(=O)Nc1cccc(Oc2nc(Nc3ccc(CN4CCC(N(C)C)CC4)cc3)nc3ccoc23)c1
- GI50 [1]: 50 to 100 nM
- GI50 [2]: 50 to 100 nM

Now from value to molecule, other results behind:

- GI50 [2]: ≤ 50 nM
Compound: C=CC(=O)Nc1cccc(Oc2nc(Nc3ccc(N4CC(C)N(C)C(C)C4)cc3)nc3ccsc23)c1 (configuration not stated)
- GI50 [1]: ≤ 50 nM

- GI50 [2]: ≤ 50 nM
Compound: C=CC(=O)Nc1cccc(Oc2nc(Nc3ccc(C4(N)CC4)cc3)nc3ccsc23)c1
- GI50 [1]: ≤ 50 nM

- GI50 [2]: ≤ 50 nM
Compound: C=CC(=O)Nc1cccc(Oc2nc(Nc3ccc(CN4CCCCC4)cc3)nc3ccsc23)c1
- GI50 [1]: ≤ 50 nM

- GI50 [2]: ≤ 50 nM
Compound: C=CC(=O)Nc1cccc(Oc2nc(Nc3ccc(N4CCN(CCF)CC4)cc3)nc3ccsc23)c1
- GI50 [1]: 50 to 100 nM

- GI50 [2]: ≤ 50 nM
Compound: C=CC(=O)Nc1cccc(Oc2nc(Nc3ccc(N4CCN(C)CC4)c(C)c3)nc3ccsc23)c1
- GI50 [1]: ≤ 50 nM

- GI50 [2]: ≤ 50 nM
Compound: C=CC(=O)Nc1cccc(Oc2nc(Nc3ccc(CN4CCN(C)CC4)cc3)nc3ccsc23)c1
- GI50 [1]: ≤ 50 nM

- GI50 [2]: ≤ 50 nM
Compound: C=CC(=O)Nc1cccc(Oc2nc(Nc3ccc(N4CCC(n5ccnc5)C4)cc3)nc3ccsc23)c1 (configuration not stated)
- GI50 [1]: ≤ 50 nM

- GI50 [2]: ≤ 50 nM
Compound: C=CC(=O)Nc1cccc(Oc2nc(Nc3ccc(NC4CCN(C)CC4)cc3)nc3ccsc23)c1
- GI50 [1]: 100 to 1000 nM

- GI50 [2]: ≤ 50 nM
Compound: C=CC(=O)Nc1cccc(Oc2nc(Nc3ccc(OC4CCN(CC)CC4)cc3)nc3ccsc23)c1
- GI50 [1]: ≤ 50 nM

- GI50 [2]: ≤ 50 nM
Compound: C=CC(=O)Nc1cccc(Oc2nc(Nc3ccc(NC(=O)CCN4CCCC4)cc3)nc3ccsc23)c1
- GI50 [1]: ≤ 50 nM

- GI50 [2]: ≤ 50 nM
Compound: C=CC(=O)Nc1cccc(Oc2nc(Nc3ccc(C(=O)NCCN4CCCC4)cc3)nc3ccsc23)c1
- GI50 [1]: ≤ 50 nM

- GI50 [2]: ≤ 50 nM
Compound: C=CC(=O)Nc1cccc(Oc2nc(Nc3ccc(C(=O)N4CCN(CC)CC4)cc3)nc3ccsc23)c1
- GI50 [1]: ≤ 50 nM
